{"source": "patent US20090311176A1", "about": "“2-Arylpyrazolo[L,5-Alpha] Pyrimidin-3-YL Acetamide Derivatives as Ligands for Translocator Protein (18 Kda)” (The University of Sydney, priority 2006, published 2009)", "key": {"CBR": {"test_system": "CBR", "experiment": "CBR binding with [^3H]Ro 15-1788, rat brain tissue", "settings": "for affinity for the CBR (in words): [^3H]Ro 15-1788, rat brain tissue; for Ki: [^3H]Ro 15-1788 radioligand, rat brain tissue"}, "[1]": {"experiment": "Log D determined via HPLC", "format": "physicochemical"}, "Rat glioma C6 cells": {"test_system": "Rat glioma C6 cells", "experiment": "Steroid biosynthesis (pregnenolone) assay in C6 cells", "format": "cell-based", "settings": "40 μM", "description": "All compounds were used at the same concentration (40 μM); at the end of the incubation period (2 h), the amount of pregnenolone was quantified by radio immunoassay (RIA). The values are the mean of at least three determinations.\nRat glioma C6 cells were cultured in Dulbecco's modified Eagle's medium supplemented with 10% FBS, 2 mM L-glutamine, 100 units/mL penicillin and 100 μg/mL streptomycin. Cultures were maintained in a humidified atmosphere of 5% CO2/95% air at 37° C.\nC6 cells were seeded in 24-well plates at a density of ˜1×10^6 cells/well in a final volume of 1 ml. Prior to measurement of pregnenolone production the cells were washed three times with a simple salts medium consisting of 140 mM NaCl, 5 mM KCl, 1.8 mM CaCl2, 1 mM MgSO4, 10 mM glucose, 10 mM HEPES/NaOH, pH 7.4, plus 0.1% BSA. During experiments, cells were incubated with this simple salts medium in an air incubator at 37° C. […] At the end of the incubation period (2 h) the cell medium was retained and centrifuged at 1500 g for 10 min. The amount of pregnenolone secreted into the medium was quantified by radio immunoassay (RIA), using an antibody obtained from ICN Biochemical Inc., Calif., USA, under the conditions recommended by the supplier."}, "TSPO [2]": {"test_system": "TSPO", "experiment": "In vivo [^18F]DPA-714 baboon PET studies (baseline, blocking, displacement)", "set-up": "species or system Papio hamadryas baboon", "procedure": "This dual modality device has a fully-3D PET scanner with 24 crystal rings and a dual slice CT scanner in the same gantry. It yields a reconstructed PET spatial resolution of 6.3 mm full width at half maximum (FWHM) at the centre of the field of view. The baboon was initially anaesthetized with ketamine (8 mg/kg, im). Anaesthesia was maintained with the use of an iv infusion of ketamine (Parnell Laboratory, Australia) in saline at a dose rate of 0.2 mg ketamine/kg/min. The baboon also received MgSO4 (2 mL iv) given over half an hour plus atropine (1 mg im) plus maxalon (5 mg im). The head of the baboon was immobilised with plastic tape to minimise motion artifacts. A CT scan of the head was completed prior to radioligand injection. Acquisition of the PET data in list mode was commenced just prior to radioligand injection and continued for a period of 60 min. […] At the conclusion of each study the list mode data were sorted into a dynamic scan comprising 54 frames (20×30 s, 30×60 s and 4×300 s). […] The radioligand uptake was converted to units of percent injected dose per volume of brain tissue (% dose/mL) and plotted against time.\nDecay corrected time activity curves representing the variation in ligand concentration vs. time were constructed from selected slices for regions of interest over the thalamus, cerebellum, striaturn, cortex, skull and whole brain. After the list-mode acquisition, a whole body PET-CT scan was performed, 2 minutes at each of the six bed positions, to determine other sites of radioligand uptake."}, "Sprague-Dawley rat": {"test_system": "Sprague-Dawley rat", "experiment": "Single intravenous dose toxicity study in the rat", "format": "in vivo", "description": "The study involved 2 groups of […] SPF Sprague-Dawley rats (each of 5 males and 5 females), 7 weeks old and weighing between 193.1 g and 215 g for males and between 160.6 g and 180.1 g for females on the day of randomisation. Animals were purchased from Charles River Laboratories France (Domaine des Oncins—69592 L'Arbresle Cedex, France).\nAnimals were weighed on the day of randomisation, on D7, D14 and D15 (day of necropsy).\nGeneral observations were performed on D1, 60 minutes±30 minutes after dosing, again between 3 and 4 hours post-dose and then once a day for 14 days. Functional and neurobehavioural tests were also assessed on D1, 60 minutes±30 minutes after dosing and then on D7 and D 14. Mortality was recorded twice a day for 14 days. All animals surviving at the end of the 14-day period were submitted to gross necropsy."}, "TSPO [3]": {"biological_target": "T1, TSPO (Rattus norvegicus, UniProt P16257)", "T1 construct": "from tissue; host or cells: living rat; peripheral tissues and brain regions", "experiment": "Ex vivo biodistribution of [^18F]DPA-714 in QA lesioned rats", "settings": "pre-injection 15 min before radioligand; PK 11195 5 mg/kg, DPA-714 and DPA-713 1 mg/kg", "procedure": "Adult male Wistar rats weighing 300-320 g (Janvier, Le Genest-St-Isle, France) were used for ex vivo experiments.\nQuinolonic acid (QA) lesions: Rats were anesthetised with isoflurane (4%, 500 mL/min), placed on a stereotaxic apparatus (Stoelting, Phymep, Paris, France) and were maintained under isoflurane 2% (500 mL/min) during surgery. The skull was exposed and small holes were made with use of a dental drill. […] A cannula (gauge 25, Hamilton, Massy, France) was inserted and a solution of QA (300 nmol in 2 μL phosphate buffer, pH 7.4) was infused at a flow rate of 0.5 μL/min. The syringe was left in place for 4 minutes before being removed to avoid backflow of QA. The bone was filled in with wax and the scalp was then sutured.\nFor peripheral tissue, results were expressed as the ratio (% ID/g tissue)/(% ID/g blood)±SEM. For brain, results were expressed as the ratio (% ID/g cerebral region)/(% ID/g cerebellum)±SEM. Student t test was performed when the number of data was ≧5. Statistic significance was considered for p<0.05."}, "[4]": {"test_system": "peripheral benzodiazepine receptor", "settings": "monkey occipital cortex, PET; cited from earlier work"}, "[5]": {"biological_target": "T2, peripheral benzodiazepine receptor (PBR) (Rattus norvegicus, UniProt P16257)", "T2 construct": "from tissue; host or cells: living rat (brain, PET and ex vivo biodistribution)", "experiment": "PET in rat model of HSV encephalitis", "format": "in vivo", "settings": "olfactory and retrograde brain areas where HSV-1 accumulates", "source_text": "Male Wistar rats were intranasally inoculated with the herpes simplex virus type-1(10^7 PFU in 1001 PBS) or PBS (control). Within a week following inoculation, replicating virus migrated into the brain and induced neuroinflammation."}, "[6]": {"experiment": "In-vivo stability of [^18F]DPA-714 in rat plasma (TLC)", "settings": "2 h post tracer injection"}}, "data": [{"smiles": "CCN(CC)C(=O)Cc1c(-c2ccc(OC)cc2)nn2c(C)cc(C)nc12", "note": "[DPA-713, N,N-Diethyl-2-[2-(4-methoxy-phenyl)-5,7-dimethylpyrazolo[1,5-a]pyrimidin-3-yl]-acetamide]", "values": [{"measurement": "affinity for the CBR (in words)", "setting": "CBR", "value": "negligible"}, {"measurement": "Ki", "setting": "CBR", "value": "> 10000", "unit": "nM"}, {"measurement": "chromatographic logD", "setting": "[1]", "value": 2.44}, {"measurement": "effect on steroidogenesis (in words)", "setting": "Rat glioma C6 cells; 2 h, C6 glioma rat cells", "value": "no effect"}]}, {"smiles": "CCN(CC)C(=O)Cc1c(-c2ccc(OCCF)cc2)nn2c(C)cc(C)nc12", "note": "[DPA-714, N,N-Diethyl-2-{2-[4-(2-fluoro-ethoxy)-phenyl]-5,7-dimethyl-pyrazolo[1,5-a]pyrimidin-3-yl}-acetamide]", "values": [{"measurement": "affinity for the CBR (in words)", "setting": "CBR", "value": "negligible"}, {"measurement": "Ki", "setting": "CBR", "value": "> 10000", "unit": "nM"}, {"measurement": "chromatographic logD", "setting": "[1]", "value": 2.44}, {"measurement": "pregnenolone synthesis above baseline", "setting": "Rat glioma C6 cells; 2 h, C6 glioma rat cells, RIA", "value": 80, "unit": "%"}, {"measurement": "activity at stimulating neurosteroid synthesis compared with PK 11195", "setting": "Rat glioma C6 cells; same assay", "value": "twice more active"}, {"measurement": "displacement of [^18F]DPA-714 from whole baboon brain", "setting": "TSPO [2]; cold DPA-714 1 mg/kg at 20 minutes post injection", "value": "complete washout of the radioligand"}, {"measurement": "displacement of [^18F]DPA-714 binding in peripheral regions", "setting": "TSPO [2]; cold DPA-714 at 20 minutes after radioligand, data not shown", "value": "complete displacement"}, {"measurement": "toxicity signs overall", "setting": "Sprague-Dawley rat; administered once i.v. at 5 mL/kg, batch No. 140306", "value": "did not induce any toxicity sign"}, {"measurement": "LD50", "setting": "Sprague-Dawley rat; rat, in vivo, iv", "value": "higher than 5 mL/kg"}]}, {"smiles": "CCC(C)N(C)C(=O)c1cc2ccccc2c(-c2ccccc2Cl)n1", "note": "(stereo not drawn) [PK 11195]", "values": [{"measurement": "affinity for the CBR (in words)", "setting": "CBR", "value": "negligible"}, {"measurement": "Ki", "setting": "CBR", "value": "> 10000", "unit": "nM"}, {"measurement": "chromatographic logD", "setting": "[1]", "value": 3.35}, {"measurement": "inhibition of [^18F]DPA-714 uptake in peripheral tissues by pre-treatment", "setting": "TSPO [3]", "value": "significant inhibition of radioligand uptake in the heart, bone and liver but not in the adrenals and muscle"}]}, {"smiles": "COc1ccc(O[11CH3])c(CN(C(C)=O)c2cc(F)ccc2Oc2ccccc2)c1", "note": "[[^11C]DAA1106]", "values": [{"measurement": "binding compared with [^11C](R)-PK 11195", "setting": "[4]", "value": "four times greater"}]}, {"smiles": "CCC(C)N([11CH3])C(=O)c1cc2ccccc2c(-c2ccccc2Cl)n1", "note": "(stereo not drawn) [[^11C]PK11195]", "values": [{"measurement": "uptake in HSE rats versus control (in words)", "setting": "[5]", "value": "not significantly increased"}]}, {"smiles": "CCN(CC)C(=O)Cc1c(-c2ccc(OCC[18F])cc2)nn2c(C)cc(C)nc12", "note": "[[^18F]DPA-714]", "values": [{"measurement": "uptake in the baboon skull", "setting": "TSPO [2]; baseline PET study", "value": "No uptake"}, {"measurement": "blood brain barrier penetration / accumulation in the brain", "setting": "TSPO [2]; baseline PET study, 100 MBq i.v., baboon", "value": "capable of penetrating the blood brain barrier with considerable accumulation in the brain"}, {"measurement": "time to maximum uptake in whole baboon brain", "setting": "TSPO [2]; baseline study, time activity curve", "value": "within ten minutes"}, {"measurement": "whole body uptake in the heart, adrenals and salivary glands", "setting": "TSPO [2]; whole body PET after brain imaging", "value": "high uptake"}, {"measurement": "radioactivity in rat plasma consisting of the parent compound", "setting": "[6]", "value": "78±1", "unit": "%"}]}]}
